In ChEMBL document CHEMBL4742389, “Cyclohexyl benzamide compounds” (2019):

Tests used:
[1] = biological target: T1, Probable G-protein coupled receptor 142 (Homo sapiens, UniProt Q7Z601); test: Agonist activity at human GPR142 receptor expressed in HEK293 cells assessed as accumulation of inositol phosphate incubated for 1 hr followed by IP1-d2 addition by HTRF assay; format: functional, cell-based
T1 sequence (Q7Z601 whole entry): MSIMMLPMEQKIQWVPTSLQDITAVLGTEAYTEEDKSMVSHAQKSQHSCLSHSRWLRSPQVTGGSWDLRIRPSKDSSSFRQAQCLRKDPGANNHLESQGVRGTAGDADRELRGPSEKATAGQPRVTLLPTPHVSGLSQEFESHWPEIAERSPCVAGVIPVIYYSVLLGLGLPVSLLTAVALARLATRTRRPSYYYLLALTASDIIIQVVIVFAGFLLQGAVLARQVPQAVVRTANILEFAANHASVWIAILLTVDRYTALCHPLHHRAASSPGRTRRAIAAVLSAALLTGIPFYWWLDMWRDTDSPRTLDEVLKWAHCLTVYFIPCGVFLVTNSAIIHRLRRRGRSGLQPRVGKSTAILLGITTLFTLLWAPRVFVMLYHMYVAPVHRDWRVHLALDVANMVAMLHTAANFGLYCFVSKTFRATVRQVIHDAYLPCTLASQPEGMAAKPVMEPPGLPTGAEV

[2] = biological target: T2, Probable G-protein coupled receptor 142 (Homo sapiens) (UniProt Q7Z601); test: Agonist activity at human GPR142 receptor expressed in HEK293 cells assessed as accumulation of inositol phosphate incubated for 1 hr followed by IP1-d2 addition by HTRF assay relative to control; format: functional, cell-based; conditions: filed as agonist
T2 sequence (whole entry): T1 sequence (Q7Z601 whole entry)

[3] = system: Mus musculus; test: Antidiabetic activity in po dosed lean C57BL/6J mouse assessed as reduction in glucose level administered 90 mins prior to glucose challenge measured for 60 mins by IPGTT; format: functional; conditions: 2.5 h, time 150 min

Row | SMILES | EC50 [1] | Efficacy [2] | ED50 [3]
1 | Cc1nc[nH]c1-c1nnc([C@H]2CCC[C@@H](N(C)C(=O)c3cccc(C(F)(F)F)c3)C2)[nH]1 | < 120 nM | 120% | –
2 | Cc1ncn(C)c1-c1nnc([C@H]2CCC[C@@H](N(C)C(=O)c3cccc(C(F)(F)F)c3)C2)[nH]1 | < 120 nM | 120% | –
3 | Cc1ncc(-c2nnc([C@H]3CCC[C@@H](N(C)C(=O)c4cccc(C(F)(F)F)c4)C3)[nH]2)n1C | < 120 nM | 120% | –
4 | Cc1ncn(C)c1-c1nnc([C@@H]2CCC[C@H](N(C)C(=O)c3cccc(Cl)c3)C2)[nH]1 | – | 120% | –
5 | Cc1ncn(CC(F)F)c1-c1nnc([C@H]2CCC[C@@H](N(C)C(=O)c3cccc(C(F)(F)F)c3)C2)[nH]1 | < 120 nM | 120% | –
6 | Cc1ncn(C)c1-c1nnc([C@H]2CCC[C@@H](N(C)C(=O)c3cccc(Cl)c3)C2)[nH]1 | – | 110% | 0.25 mg/kg
7 | CN(C(=O)c1cccc(C(F)(F)F)c1)[C@@H]1CCC[C@H](c2nnc(-c3cnc4n3CCOC4)[nH]2)C1 | < 120 nM | 120% | –
8 | Cc1ncc(-c2nnc([C@H]3CCC[C@@H](N(C)C(=O)c4cccc(C(F)(F)F)c4)C3)[nH]2)[nH]1 | < 120 nM | 120% | –
9 | Cc1nc[nH]c1-c1nnc([C@H]2CCC[C@@H](N(C)C(=O)c3cccc(OC(F)(F)F)c3)C2)[nH]1 | < 120 nM | 120% | –
10 | Cc1ncc(-c2nnc([C@H]3CCC[C@@H](N(C)C(=O)c4cccc(Cl)c4)C3)[nH]2)n1C | < 120 nM | 120% | –
11 | COCCn1cnc(C)c1-c1nnc([C@H]2CCC[C@@H](N(C)C(=O)c3cccc(Cl)c3)C2)[nH]1 | < 120 nM | 120% | –
12 | Cc1nc[nH]c1-c1nnc([C@H]2CCC[C@@H](N(C)C(=O)c3cccc(Cl)c3)C2)[nH]1 | < 120 nM | 120% | –
